Test results published in US10385069B2, “Imidazo[2,1-B]thiazole and 5,6-dihydroimidazo[2,1-B]thiazole derivatives useful as S100-inhibitors” (Active Biotech AB, priority 2015, dated 2019).

Target: T1, interaction between biotinylated human S100A9 and human RAGE-Fc (Homo sapiens, UniProt P06702)
T1 construct: made in house; host or cells: E. coli
T1 sequence (P06702 1-114): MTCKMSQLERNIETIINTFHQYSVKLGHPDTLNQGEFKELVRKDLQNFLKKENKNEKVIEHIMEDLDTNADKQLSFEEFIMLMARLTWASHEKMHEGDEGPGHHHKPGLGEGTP
Test: AlphaScreen inhibition assay, biot-hS100A9:hRAGE-Fc
Type: binding
Details: biot-hS100A9 pre-incubated with compound 1 h, assay buffer with CaCl2 and ZnCl2
From the text: Inhibition Assay, Biot-hS100A9:hRAGE-Fc
The AlphaScreen (Amplified Luminescent Proximity Homogeneous Assay) contains two types of beads, Alpha Donor beads and Acceptor beads (PerkinElmer). Upon laser excitation at 680 nm a photosensitizer in the Donor bead converts ambient oxygen to a more excited singlet state. The singlet oxygen molecule diffuses (maximum 200 nm) to react with a thioxene derivative in the Acceptor bead and generates a chemiluminescence reaction. Fluorophores in the Acceptor bead subsequently emit light at 520-620 nm which can be detected in the EnVision® Multilabel plate Reader (PerkinElmer). The beads are light sensitive and all work with the beads is performed under subdued light conditions or using green filters on light sources (Roscolux Chroma Green #389, Rosco).
In the AlphaScreen Inhibition Assay described here, protein A (Staphylococcus aureus) conjugated Acceptor beads are used together with streptavidin coated Donor beads (Perkin Elmer 6760617M). The Acceptor beads are pre-incubated with Fc-tagged recombinant human RAGE (rhRAGE-Fc) allowing binding of the rhRAGE-Fc to protein A on the beads. Biotinylated human S100A9 (biot-hS100A9) is pre-incubated with the low molecular test compounds. The pre-mixes are then added to the wells of a micro-plate and incubated allowing interaction between biot-hS100A9 and rhRAGE-Fc. Subsequent addition of streptavidin coated Donor beads causes binding of the streptavidin to the biotinylated hS100A9. After an additional incubation the signal is measured.
Without inhibitory compounds, the interaction of biot-hS100A9 to rhRAGE-Fc will bring the Acceptor and Donor beads in close proximity thus generating a high signal. With an inhibitor present the complex will not form resulting in a decreased signal. The assay is illustrated in FIG. 1.
Chemicals and Reagents. • AlphaScreen® General IgG (Protein A) Detection Kit, (PerkinElmer 6760617M) • HBS-P buffer (GE Healthcare, BR-1003-68) • HBS-N buffer (GE Healthcare, BR-1003-69) • CaCl2 in HBS-P • ZnCl2 in Milli-Q water • DMSO • Biotinylated hS100A9, (biotinylated via cystein by EZ-link Iodoacetyl-PEG2-Biotin reagent (Pierce no. 21334), in HBS-N • rhRAGE-Fc (R&D Systems, 1145-RG-50), in HBS-P
The AlphaScreen assay method is used for screening of the inhibitory effect of different compound samples at fixed concentrations or for IC50 determination by varying the compound concentrations. Samples of test compounds and references are prepared from solutions in DMSO. Relevant reference inhibitors and DMSO are used as controls for defined inhibition and non-inhibition, respectively in the assay. The percent inhibition in assay for test compounds and references are calculated by comparing their obtained assay signals with the signal values for the control with only DMSO (no compound).
Assay concentration of biotinylated hS100A9 and rhRAGE-Fc are batch dependent, and are determined and defined by separate cross-titration experiments using this AlphaScreen inhibition method to verify the optimal setup regarding signal strength and achievement of a defined inhibition with relevant reference compounds. The Final assay concentrations of Acceptor and Donor beads are 20 μg/mL.
Assay buffer is prepared by adding CaCl2 and ZnCl2 to HBS-P and is used freshly prepared in the experiment.
Biotin-hS100A9 solution for the experiment is prepared by dilution of appropriate amount of stock solution biot-hS100A9 in assay buffer (with CaCl2 and ZnCl2) and incubation in room temperature for 30 minutes.
rhRAGE-Fc solution for the experiment is prepared by dilution appropriate amount of rhRAGE-Fc stock in assay buffer.
Protein A Acceptor beads are diluted in assay buffer and are added to an equal volume of the prepared diluted rhRAGE-Fc solution. The beads are light sensitive. The vial is covered with aluminum foil and incubated at room temperature in the dark until biot-hS100A9+compound incubation is finished (see below). […]

| IC50 [nM] | SMILES |
| --- | --- |
| 640 | CC(C)(C)C1CCc2c(sc3nc(C(=O)NC#N)cn23)C1 (stereo not drawn) [Example 58, 10-tert-Butyl-N-cyano-7-thia-2,5-diazatricyclo[6.4.0.0^2,6]dodeca-1(8),3,5-triene-4-carboxamide] |
| 450 | O=C(O)C1CN2C(=N1)Sc1c2ccc(Cl)c1Cl (stereo not drawn) [Example 185, 9,10-Dichloro-7-thia-2,5-diazatricyclo[6.4.0.0^2,6]dodeca-1(8),5,9,11-tetraene-4-carboxylic acid] |
| 2190 | O=C(O)C(O)c1cn2c(n1)sc1c(Cl)c(Cl)ccc12 (stereo not drawn) [Example 188, 2-{9,10-Dichloro-7-thia-2,5-diazatricyclo[6.4.0.0^2,6]dodeca-1(8),3,5,9,11-pentaen-4-yl}-2-hydroxyacetic acid] |
| 1680 | COc1ccc(-c2c(C(=O)O)nc3sc4c(n23)CCC(C(C)(C)C)C4)cc1 (stereo not drawn) [Example 190, 10-tert-Butyl-3-(4-methoxyphenyl)-7-thia-2,5-diazatricyclo[6.4.0.0^2,6]dodeca-1(8),3,5-triene-4-carboxylic acid] |
| 240 | Cc1c(C(=O)O)nc2sc3c(n12)CCC(C(C)(C)C)C3 (stereo not drawn) [Example 195, 10-tert-Butyl-3-methyl-7-thia-2,5-diazatricyclo[6.4.0.0^2,6]dodeca-1(8),3,5-triene-4-carboxylic acid] |
| 490 | CC(C)(C)C1CCc2c(sc3nc(C(=O)O)c(NS(C)(=O)=O)n23)C1 (stereo not drawn) [Example 196, 10-tert-Butyl-3-methanesulfonamido-7-thia-2,5-diazatricyclo[6.4.0.0^2,6]dodeca-1(8),3,5-triene-4-carboxylic acid] |
| 1440 | O=C(O)c1cn2c(n1)sc1c(Cl)ccc(Cl)c12 [Example 197, 9,12-Dichloro-7-thia-2,5-diazatricyclo[6.4.0.0^2,6]dodeca-1(8),3,5,9,11-pentaene-4-carboxylic acid] |
| 1560 | O=C(O)c1cn2c(n1)sc1c(OC(F)(F)F)cccc12 [Example 198, 9-(Trifluoromethoxy)-7-thia-2,5-diazatricyclo[6.4.0.0^2,6]dodeca-1(8),3,5,9,11-pentaene-4-carboxylic acid] |
| 530 | CC1(C)Cc2c(sc3nc(C(=O)O)c(I)n23)C(C)(C)C1 [Example 199, 3-Iodo-9,9,11,11-tetramethyl-7-thia-2,5-diazatricyclo[6.4.0.0^2,6]dodeca-1(8),3,5-triene-4-carboxylic acid] |
| 1470 | O=C(O)c1cn2c(n1)sc1cc(SC(F)(F)F)ccc12 [Example 201, 10-[(Trifluoromethyl)sulfanyl]-7-thia-2,5-diazatricyclo[6.4.0.0^2,6]dodeca-1(8),3,5,9,11-pentaene-4-carboxylic acid] |
| 780 | CN(C)Cc1c(C(=O)O)nc2sc3c(Cl)c(Cl)ccc3n12 [Example 203, 9,10-Dichloro-3-[(dimethylamino)methyl]-7-thia-2,5-diazatricyclo[6.4.0.0^2,6]dodeca-1(8),3,5,9,11-pentaene-4-carboxylic acid] |
| 940 | O=C(O)c1cn2c(n1)sc1c(Cl)cc(Cl)cc12 [Example 204, 9,11-Dichloro-7-thia-2,5-diazatricyclo[6.4.0.0^2,6]dodeca-1(8),3,5,9,11-pentaene-4-carboxylic acid] |
| 960 | CC(C)(C)c1ccc2c(c1)sc1nc(C(=O)O)cn12 [Example 206, 10-tert-Butyl-7-thia-2,5-diazatricyclo[6.4.0.0^2,6]dodeca-1(8),3,5,9,11-pentaene-4-carboxylic acid] |
| 780 | CC1(C)Cc2c(sc3nc(C(=O)O)c(Cl)n23)C(C)(C)C1 [Example 207, 3-Chloro-9,9,11,11-tetramethyl-7-thia-2,5-diazatricyclo[6.4.0.0^2,6]dodeca-1(8),3,5-triene-4-carboxylic acid] |
| 2260 | O=C(O)c1cn2c(n1)sc1cc(OCc3ccccc3)ccc12 [Example 208, 10-(Benzyloxy)-7-thia-2,5-diazatricyclo[6.4.0.0^2,6]dodeca-1(8),3,5,9,11-pentaene-4-carboxylic acid] |
| 1020 | O=C(O)c1cn2c(n1)sc1c(F)c(F)ccc12 [Example 209, 9,10-Difluoro-7-thia-2,5-diazatricyclo[6.4.0.0^2,6]dodeca-1(8),3,5,9,11-pentaene-4-carboxylic acid] |
| 700 | O=C(O)c1cn2c(n1)sc1c(Br)cccc12 [Example 212, 9-Bromo-7-thia-2,5-diazatricyclo[6.4.0.0^2,6]dodeca-1(8),3,5,9,11-pentaene-4-carboxylic acid] |
| 640 | O=C(O)c1cn2c(n1)sc1c(Cl)c(OC(F)(F)F)ccc12 [Example 214, 9-Chloro-10-(trifluoromethoxy)-7-thia-2,5-diazatricyclo[6.4.0.0^2,6]dodeca-1(8),3,5,9,11-pentaene-4-carboxylic acid] |
| 1090 | COc1c(Cl)ccc2c1sc1nc(C(=O)O)cn12 [Example 217, 10-Chloro-9-methoxy-7-thia-2,5-diazatricyclo[6.4.0.0^2,6]dodeca-1(8),3,5,9,11-pentaene-4-carboxylic acid] |
| 1580 | COc1ccc2c(sc3nc(C(=O)O)cn32)c1Cl [Example 218, 9-Chloro-10-methoxy-7-thia-2,5-diazatricyclo[6.4.0.0^2,6]dodeca-1(8),3,5,9,11-pentaene-4-carboxylic acid] |
| 770 | CS(=O)(=O)NC(=O)c1cn2c(n1)sc1c(Cl)c(OC(F)(F)F)ccc12 [Example 220, 9-Chloro-N-methanesulfonyl-10-(trifluoromethoxy)-7-thia-2,5-diazatricyclo[6.4.0.0^2,6]dodeca-1(8),3,5,9,11-pentaene-4-carboxamide] |
| 690 | CC1(C)Cc2c(sc3nc(C(=O)O)c(Br)n23)C(C)(C)C1 [Example 222, 3-Bromo-9,9,11,11-tetramethyl-7-thia-2,5-diazatricyclo[6.4.0.0^2,6]dodeca-1(8),3,5-triene-4-carboxylic acid] |
| 260 | O=C(O)C1CN2C(=N1)Sc1c2ccc(F)c1Cl (stereo not drawn) [Example 228, 9-Chloro-10-fluoro-7-thia-2,5-diazatricyclo[6.4.0.0^2,6]dodeca-1(8),5,9,11-tetraene-4-carboxylic acid] |
| 740 | C#Cc1c(C(=O)O)nc2sc3c(n12)CC(C)(C)CC3(C)C [Example 229, 3-Ethynyl-9,9,11,11-tetramethyl-7-thia-2,5-diazatricyclo[6.4.0.0^2,6]dodeca-1(8),3,5-triene-4-carboxylic acid] |
| 980 | O=C(O)c1cn2c(n1)sc1cc(Cl)c(OC(F)(F)F)cc12 [Example 230, 10-Chloro-11-(trifluoromethoxy)-7-thia-2,5-diazatricyclo[6.4.0.0^2,6]dodeca-1(8),3,5,9,11-pentaene-4-carboxylic acid] |
| 200 | CS(=O)(=O)Nc1c(C(=O)O)nc2sc3c(Cl)c(F)ccc3n12 [Example 232, 9-Chloro-10-fluoro-3-methanesulfonamido-7-thia-2,5-diazatricyclo[6.4.0.0^2,6]dodeca-1(8),3,5,9,11-pentaene-4-carboxylic acid] |

| SMILES | IC50 [nM] |
| --- | --- |
| CC1(C)Cc2c(sc3nc(C(=O)O)c(C4CN(C(=O)OC(C)(C)C)C4)n23)C(C)(C)C1 [Example 225, 3-{1-[(tert-Butoxy)carbonyl]azetidin-3-yl}-9,9,11,11-tetramethyl-7-thia-2,5-diazatricyclo[6.4.0.0^2,6]dodeca-1(8),3,5-triene-4-carboxylic acid] | 310 |
